From ChEMBL document CHEMBL3244423, “Cardioselectivity as a function of molecular structure in beta-adrenoceptor blocking agents of the 1-(para-substituted aryloxy)-3-(isopropylamino)propan-2-ol type” (J Med Chem, 1978)
Active and inactive are the calls of the source. The rule behind the calls is not given here.

Experiments:
[1] = target: Beta-1 adrenergic receptor (Rattus norvegicus, UniProt P18090); test: Antagonist activity at beta1 adrenergic receptor in isolated rat atria; conditions: read-out: pA2 (converted)
Beta-1 adrenergic receptor, sequence (P18090 whole entry): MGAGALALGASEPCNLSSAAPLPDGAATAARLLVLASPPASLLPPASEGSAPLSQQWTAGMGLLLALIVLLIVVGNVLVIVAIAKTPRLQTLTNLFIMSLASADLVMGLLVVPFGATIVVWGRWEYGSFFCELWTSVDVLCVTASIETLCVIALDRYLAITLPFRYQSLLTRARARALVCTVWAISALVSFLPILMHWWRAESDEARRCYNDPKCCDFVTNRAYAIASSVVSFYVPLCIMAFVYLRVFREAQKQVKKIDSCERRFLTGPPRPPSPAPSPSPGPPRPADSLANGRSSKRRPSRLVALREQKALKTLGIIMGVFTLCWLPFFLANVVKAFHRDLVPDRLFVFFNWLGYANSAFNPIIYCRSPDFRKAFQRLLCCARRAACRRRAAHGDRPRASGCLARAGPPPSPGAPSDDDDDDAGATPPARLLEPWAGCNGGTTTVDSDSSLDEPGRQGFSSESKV

[2] = target: Beta-2 adrenergic receptor (Rattus norvegicus, UniProt P10608); test: Antagonist activity at beta2 adrenergic receptor in isolated rat stomach fundus; conditions: read-out: pA2 (converted)
Beta-2 adrenergic receptor, sequence (P10608 whole entry): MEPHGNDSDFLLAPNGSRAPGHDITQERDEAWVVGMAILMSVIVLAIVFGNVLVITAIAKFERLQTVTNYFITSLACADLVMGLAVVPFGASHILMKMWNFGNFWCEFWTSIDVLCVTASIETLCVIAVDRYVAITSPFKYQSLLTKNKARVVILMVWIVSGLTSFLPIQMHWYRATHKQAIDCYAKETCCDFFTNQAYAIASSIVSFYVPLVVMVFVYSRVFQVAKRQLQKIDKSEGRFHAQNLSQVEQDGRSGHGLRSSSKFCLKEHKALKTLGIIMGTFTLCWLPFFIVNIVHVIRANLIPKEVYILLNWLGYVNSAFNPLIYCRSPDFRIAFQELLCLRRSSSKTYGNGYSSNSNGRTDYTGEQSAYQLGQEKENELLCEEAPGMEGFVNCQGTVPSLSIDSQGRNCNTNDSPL

[3] = Selectivity ratio of beta1 adrenergic receptor in isolated rat atria to beta2 adrenergic receptor in isolated rat stomach fundus
[4] = tested on: Felis catus; test: In vivo antagonist activity at beta2 adrenergic receptor in cat assessed as vascular activity; assay type: organism-based; conditions: read-out: pA2 (converted)
[5] = tested on: Felis catus; test: In vivo antagonist activity at beta1 adrenergic receptor in cat assessed as myocardial activity; assay type: functional, organism-based; conditions: Myocardium, read-out: pA2 (converted)
[6] = species on record: Felis catus; test: Selectivity ratio of antagonist activity at beta1 adrenergic receptor in cat to antagonist activity at beta2 adrenergic receptor in cat
[7] = target: Beta-2 adrenergic receptor (Rattus norvegicus) (UniProt P10608); test: Agonist activity at beta2 adrenergic receptor in isolated rat stomach fundus in presence of propranolol
Beta-2 adrenergic receptor (Rattus norvegicus), sequence (P10608 whole entry, looked up): as the sequence (P10608 whole entry) above

[8] = target: Beta-1 adrenergic receptor (Rattus norvegicus) (UniProt P18090); test: Agonist activity at beta1 adrenergic receptor in isolated rat atria in presence of propranolol
Beta-1 adrenergic receptor (Rattus norvegicus), sequence (P18090 whole entry, looked up): as the sequence (P18090 whole entry) above

| Kb [1] | Kb [2] | Activity [7] | Activity [8] | SMILES | Selectivity ratio [3] | Kb [4] | Kb [5] | Selectivity ratio [6] |
| --- | --- | --- | --- | --- | --- | --- | --- | --- |
| 63.1 nM | 0.0316 µM |  |  | CCc1ccc(OCC(O)CNC(C)C)cc1 (racemic) | 0.5 |  |  |  |
| 3630 nM | 1000 µM |  |  | CNC(=O)c1ccc(OCC(O)CNC(C)C)cc1 (racemic) | 275 |  |  |  |
| 10000 nM | 15.8 µM |  |  | CC(C)NCC(O)COc1ccc(C(N)=O)cc1 (racemic) | 1.6 |  |  |  |
| 135000 nM | 81.3 µM |  |  | CC(C)NCC(O)COc1ccc2c(c1)CCCNC2=O (racemic) | 0.6 |  |  |  |
| 18200 nM | 45.7 µM |  |  | CC(C)NCC(O)COc1ccc2c(c1)OCCNC2=O (racemic) | 2.5 |  |  |  |
|  |  |  |  | CC(C)NCC(O)COc1ccc2c(c1)CCCC(=O)N2 (racemic) |  | 10 µM | 10 µM | 1 |
|  |  |  |  | CC(C)NCC(O)COc1ccc2c(c1)OCC(=O)N2 (racemic) |  | 3.16 µM | 2.51 µM | 1.3 |
| 25.1 nM | 0.158 µM |  |  | CCCc1ccc(OCC(O)CNC(C)C)cc1.Cl (racemic) | 6.5 |  |  |  |
| 50.1 nM | 1.26 µM |  |  | C/C=C/c1ccc(OCC(O)CNC(C)C)c(OC)c1 (racemic) | 25 |  |  |  |
| 200 nM | 0.02 µM |  |  | C/C=C\c1ccc(OCC(O)CNC(C)C)c(OC)c1 (racemic) | 0.1 |  |  |  |
| > 316000 nM | > 316 µM | inactive | inactive | CC(C)NCC(O)COc1ccc(CC2(C)OCCO2)cc1 (racemic) |  |  |  |  |
| 339 nM |  |  |  | CC(=O)Nc1ccc(OCC(O)CNC(C)C)cc1 (stereo not given) [PRACTOLOL] |  |  |  |  |
